In paper PMC9863159, “Isolation and Identification of Lipid-Lowering Peptides from Sacha Inchi Meal” (International Journal of Molecular Sciences, 2023):
Read-outs that look alike come from different tables or passages of the source. Peptide text beside a SMILES is read from it.

Assays:
[1] = molecular target: T1, pancreatic lipase (Sus scrofa, UniProt P00591); design: method as in PMID 36195236; conditions: peptides from sesame proteins ref 6; cited from earlier work
T1 sequence (P00591 1-450): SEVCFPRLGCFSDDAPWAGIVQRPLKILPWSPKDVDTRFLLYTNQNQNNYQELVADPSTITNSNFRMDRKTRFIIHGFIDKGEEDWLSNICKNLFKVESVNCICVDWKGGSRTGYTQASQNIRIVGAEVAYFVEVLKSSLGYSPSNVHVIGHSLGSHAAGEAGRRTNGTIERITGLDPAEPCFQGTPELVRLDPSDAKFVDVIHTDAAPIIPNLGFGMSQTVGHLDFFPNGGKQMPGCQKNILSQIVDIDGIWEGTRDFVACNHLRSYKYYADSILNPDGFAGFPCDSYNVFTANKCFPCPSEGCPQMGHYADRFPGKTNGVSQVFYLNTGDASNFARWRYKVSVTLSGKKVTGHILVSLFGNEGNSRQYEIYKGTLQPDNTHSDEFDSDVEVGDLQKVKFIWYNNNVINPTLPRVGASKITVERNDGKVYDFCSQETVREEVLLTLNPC

[2] = system: 3T3-L1 preadipocytes; design: method as in doi:10.1016/j.jff.2018.05.066; conditions: 600 μg/mL, compared with the control ref 24; cited from earlier work
[3] = system: HepG2 cells; test: Fat accumulation (oil red O) and triglyceride content in oleic acid-induced HepG2; assay type: cell-based; conditions: orlistat positive control 2 mM, peptides at different concentrations
Experimental: The HepG2 cells (Guangzhou Health Institute, Guangzhou, China) in logarithmic growth period were starved with serum-free medium for 12 h. Then, we replaced the medium with a complete medium containing 0.5 mM oleic acid and 0.4% FBS, and cultured this for 2–4 days (replacing the new oleic acid containing medium every day). The cells were divided into groups, and samples were added to each group as follows: Normal group: 1 mL of complete medium containing 0.4% serum; Model group: 1 mL of medium containing 0.5 mM oleic acid and 0.4% FBS; Positive control group: 1 mL of medium containing 2 mM orlistat, 0.5 mM oleic acid and 0.4% FBS; Sample treatment group: adding 1 mL of samples with different concentrations (high, medium, low) and medium containing 0.5 mM oleic acid and 0.4% FBS. […] Then, the paraformaldehyde solution was discarded, PBS was washed 3 times, and 1 mL of oil red O staining solution was added to each well. After dyeing at 37 °C for 1 h, the dye solution was discarded, washed with PBS 3 times, and 1 mL of PBS was added to prevent cell drying. […] According to the instructions of the triglyceride (TG) test box, the TG content of each well was measured using the GPO-PAP method, and the protein content was measured using the BCA method. The results were expressed as the triglyceride content per gram of protein (mmol/g protein).

[4] = molecular target: T1, pancreatic lipase; test: Pancreatic lipase inhibitory activity (4-MUO fluorescence); assay type: biochemical; conditions: for inhibition at 500 µM: peptide concentration 0.5 mM, read-out: inhibitory percentage on pancreatic lipase; for IC50: read-out: IC50 against pancreatic lipase
Experimental: The sample was diluted to an appropriate concentration with Tris HCl buffer. […] The fluorescence intensity was measured at excitation wavelength λex = 320 nm and emission wavelength λem = 450 nm. A buffer (25 μL) and enzyme solution (25 μL) were added for the control group. A sample solution (25 μL) and buffer (25 μL) were added for background group. Each group of experiments was repeated 3 times. The calculation formula of pancreatic lipase inhibition rate was as follows:(1) Lipase inhibition rate (%)=(1−FLUsample−FLUbackground/FLUnegative control−FLUnegative background)×100
Among them, FLUsample was the light absorption value of the experimental group; FLUbackground was the light absorption value of the sample background group; FLUnegative control was the absorbance value of the control group without samples; and FLUnegative background was the absorbance value of the background of the control group.

[5] = molecular target: T1, pancreatic lipase; test: Inhibition kinetics of pancreatic lipase (Lineweaver–Burk); assay type: biochemical; conditions: read-out: equilibrium constant Ki
Experimental: In total, a 25 μL sample solution of different concentrations, a 25 μL enzyme solution, and 50 μL substrates with different concentrations were added to the 96-well plate. The fluorescence value FLU was immediately measured at the excitation wavelength λex = 320 nm and emission wavelength λem = […], every 1 min within 20 min, and each group of experiments was repeated 3 times. The slope of the “fluorescence value-time” linear fitting curve represented the reaction rate of the enzyme in the presence of the sample. The Lineweaver–Burk double reciprocal diagram was drawn to analyze the inhibition type of synthetic peptides on enzymes.

[6] = molecular target: T1, pancreatic lipase; test: Fluorescence quenching assay of pancreatic lipase; conditions: binding constant Ka, Table S2
[7] = system: 3T3-L1 cells; design: method as in PMID 31569521; conditions: 600 µg/mL, 3T3-L1 cells ref 25; cited from earlier work
[8] = system: porcine pancreatic lipase; design: method as in PMID 31569521; conditions: 200 µg/mL ref 25; cited from earlier work
[9] = cited from earlier work

For QWM, the IC50 [1] is listed as 986 ± 170 µM.
For CANPHELPNK, the “inhibition on triglyceride production” value [2] is listed as 19.5%.
In the case of CCCCCCCCCCC[C@@H](C[C@@H]1OC(=O)[C@H]1CCCCCC)OC(=O)[C@H](CC(C)C)NC=O [orlistat], the “fat (oil) accumulation in HepG2 cells, oil red O staining” value [3] is reported as “significantly reduce the oil accumulation in cells”.
Work on CSCC[C@H](NC(=O)[C@H](CC(C)C)NC(=O)[C@H](CC(C)C)NC(=O)CNC(=O)[C@@H](N)CCC(=O)O)C(=O)N[C@@H](Cc1c[nH]c2ccccc12)C(=O)N1CCC[C@H]1C(=O)N[C@@H](Cc1ccc(O)cc1)C(=O)O [EY-8] (H-EGLLMWPY-OH) yielded an inhibition at 500 µM [4] of 80.47 ± 0.11%, an IC50 [4] of 171 µM and a Ki [5] of 578 ± 58.1 µM.
For CSCC[C@H](NC(=O)[C@H](CC(C)C)NC(=O)[C@H](CC(C)C)NC(=O)[C@@H](N)Cc1c[nH]c2ccccc12)C(=O)N[C@@H](Cc1c[nH]c2ccccc12)C(=O)N1CCC[C@H]1C(=O)N[C@@H](Cc1ccc(O)cc1)C(=O)N[C@@H](CCCCN)C(=O)O [WK-8] (H-WLLMWPYK-OH), the inhibition at 500 µM [4] was 67.3 ± 1.1%, the IC50 [4] was 52.8 µM and the Ki [5] was 192 ± 25.3 µM.
Work on CC(C)C[C@H](NC(=O)[C@@H](N)CC(N)=O)C(=O)N[C@@H](Cc1ccc(O)cc1)C(=O)N[C@@H](Cc1ccc(O)cc1)C(=O)N[C@@H](CCCCN)C(=O)N[C@H](C(=O)N[C@H](C(=O)O)C(C)C)C(C)C [NV-7, NLYYKVV] (H-NLYYKVV-OH) yielded an inhibition at 500 µM [4] of 95.42 ± 0.6%, a Ki [5] of 77.3 ± 7.65 µM and a Kd ([6]; 298 K) of 93.8 µM. For the same compound, the Kd ([6]; 304 K) was 106 µM and the Kd ([6]; 310 K) was 203 µM.
For NIF, the IC50 [1] is listed as 1040 ± 179 µM.
In the case of AGY, the IC50 [1] is listed as 1180 ± 179 µM.
In the case of “Leu-Leu-Val-Val-Try-Pro-Trp-Thr-Gln-Arg [PP1]”, the “decrease of accumulation of intracellular triacylglycerol” value [7] is given as 27.9% and the “inhibitory effect against porcine pancreatic lipase” value [8] is given as 47.95%.
For NPVWKRK, the “inhibition on triglyceride production” value [2] is listed as 23.7%.
Work on CC(C)[C@H](NC(=O)[C@H](Cc1ccc(O)cc1)NC(=O)[C@H](Cc1c[nH]c2ccccc12)NC(=O)[C@@H](N)Cc1c[nH]c2ccccc12)C(=O)N[C@@H](CCCCN)C(=O)O [WK-5, WWYVK] (H-WWYVK-OH) yielded an inhibition at 500 µM [4] of 68.9 ± 1.8%, an IC50 [4] of 246 µM and a Ki [5] of 578 ± 25.7 µM.
For VVYP, the effect on hypertriglyceridemia [9] is listed as “inhibitory effect on hypertriglyceridemia”.
